Laboratory results reported in PubChem BioAssay (NCI).
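Cells were grown in 96-well plates and exposed to each compound for 48 hours at five concentrations; endpoints were interpolated linearly between bracketing concentrations, or set to the highest concentration if not reached. At the GI50, growth is halved. TGI denotes the concentration required for complete inhibition of growth.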

What was measured:
Assay in all cases: NCI anticancer screen, dose series, 48 h
[1] = system: SK-OV-3 ovarian
[2] = system: EKVX NSCLC
[3] = system: A549 NSCLC
[4] = system: UO-31 renal
[5] = system: 786-0 renal
[6] = system: ACHN renal
[7] = system: TK-10 renal
[8] = system: NCI-H23 lung
[9] = system: U251 CNS
[10] = system: MCF7 breast
[11] = system: SNB-19 CNS
[12] = system: SK-MEL-28 melanoma
[13] = system: NCI-H226 lung
[14] = system: KM12 colon
[15] = system: OVCAR-3 ovarian
[16] = system: OVCAR-5 ovarian
[17] = system: SF-295 CNS
[18] = system: IGROV1 ovarian
[19] = system: M14 melanoma
[20] = system: T-47D breast
[21] = system: SK-MEL-5 melanoma
[22] = system: NCI/ADR-RES ovarian
[23] = system: HS 578T breast
[24] = system: HCT-15 colon
[25] = system: UACC-62 melanoma
[26] = system: HT29 colon
[27] = system: CAKI-1 renal
[28] = system: COLO 205 colon
[29] = system: BT-549 breast
[30] = system: A498 renal
[31] = system: SF-268 CNS
[32] = system: SF-539 CNS
[33] = system: SK-MEL-2 melanoma
[34] = system: K-562 leukemia
[35] = system: MDA-MB-435
[36] = system: CCRF-CEM leukemia
[37] = system: NCI-H460 lung
[38] = system: LOX IMVI melanoma
[39] = system: HOP-62 NSCLC
[40] = system: NCI-H522 lung
[41] = system: RPMI-8226 leukemia
[42] = system: HOP-92 NSCLC
[43] = system: SR leukemia
[44] = system: HCT-116 colon
[45] = system: MALME-3M melanoma
[46] = system: DU-145 prostate
[47] = system: HL-60(TB) leukemia
[48] = system: MOLT-4 leukemia
[49] = system: PC-3 prostate
[50] = system: RXF 393 renal
[51] = system: UACC-257 melanoma
[52] = system: OVCAR-8 ovarian
[53] = system: OVCAR-4 ovarian
[54] = system: SN12C renal
[55] = system: SNB-75 CNS
[56] = system: MDA-MB-231 breast
[57] = system: SW-620 colon
[58] = system: HCC-2998 colon

For Cc1c(C(=O)CCl)c(=O)n(-c2ccccc2)n1C, the GI50 [1] was 16.4 µM, the TGI [1] was 74.5 µM and the GI50 [2] was 12.4 µM. The TGI [2] was 29.1 µM, the GI50 [3] was 11.6 µM and the TGI [3] was 27.4 µM. The GI50 [4] was 3.24 µM, the TGI [4] was 18.5 µM and the GI50 [5] was 10.7 µM. It also gave a TGI [5] of 24.3 µM, a GI50 [6] of 4.54 µM and a TGI [6] of 16.6 µM. The GI50 [7] was 3.81 µM, the TGI [7] was 15.2 µM and the GI50 [8] was 5.17 µM. It also gave a TGI [8] of 21.1 µM, a GI50 [9] of 11.4 µM and a TGI [9] of 26.2 µM. It also gave a GI50 [10] of 2.73 µM, a TGI [10] of 11.6 µM and a GI50 [11] of 17.1 µM. The TGI [11] was 51.1 µM, the GI50 [12] was 3.27 µM and the TGI [12] was 11.6 µM. For the same compound, the GI50 [13] was 13.3 µM, the TGI [13] was 33.2 µM and the GI50 [14] was 10.4 µM. For the same compound, the TGI [14] was 22.6 µM, the GI50 [15] was 1.98 µM and the TGI [15] was 4.94 µM. The GI50 [16] was 13.3 µM, the TGI [16] was 27.1 µM and the GI50 [17] was 10.9 µM. The TGI [17] was 44.3 µM, the GI50 [18] was 2.19 µM and the TGI [18] was 6.92 µM. It also gave a GI50 [19] of 3.13 µM, a TGI [19] of 15.4 µM and a GI50 [20] of 2.43 µM. It also gave a TGI [20] of 17.6 µM, a GI50 [21] of 3.66 µM and a TGI [21] of 14.5 µM. It also gave a GI50 [22] of 5.53 µM, a TGI [22] of 27.3 µM and a GI50 [23] of 0.922 µM. The TGI [23] was 5.52 µM, the GI50 [24] was 3.59 µM and the TGI [24] was 15.5 µM. For the same compound, the GI50 [25] was 4.78 µM, the TGI [25] was 18.9 µM and the GI50 [26] was 3.25 µM. The TGI [26] was 12.9 µM, the GI50 [27] was 3.2 µM and the TGI [27] was 12 µM. The GI50 [28] was 3.28 µM, the TGI [28] was 11.2 µM and the GI50 [29] was 2.46 µM. It also gave a TGI [29] of 12.8 µM, a GI50 [30] of 1.24 µM and a TGI [30] of 11 µM. It also gave a GI50 [31] of 5.47 µM, a TGI [31] of 19.7 µM and a GI50 [32] of 7.19 µM. It also gave a TGI [32] of 22.9 µM, a GI50 [33] of 3.99 µM and a TGI [33] of 14.5 µM. It also gave a GI50 [34] of 2.76 µM, a TGI [34] of 17.3 µM and a GI50 [35] of 2.57 µM. The TGI [35] was 11.5 µM, the GI50 [36] was 1.01 µM and the TGI [36] was 4.82 µM. For the same compound, the GI50 [37] was 7.94 µM, the TGI [37] was 32.1 µM and the GI50 [38] was 3.27 µM. For the same compound, the TGI [38] was 14.3 µM, the GI50 [39] was 11.5 µM and the TGI [39] was 27.3 µM. The GI50 [40] was 1.46 µM, the TGI [40] was 3.23 µM and the GI50 [41] was 1.07 µM. The TGI [41] was 4.62 µM, the GI50 [42] was 1.56 µM and the TGI [42] was 13.2 µM. For the same compound, the GI50 [43] was 2.28 µM, the TGI [43] was 13.5 µM and the GI50 [44] was 2.86 µM. The TGI [44] was 10.4 µM, the GI50 [45] was 1.31 µM and the TGI [45] was 6.98 µM. For the same compound, the GI50 [46] was 2.22 µM, the TGI [46] was 5.36 µM and the GI50 [47] was 3.8 µM. It also gave a TGI [47] of 13.5 µM, a GI50 [48] of 2.48 µM and a TGI [48] of 11.5 µM. It also gave a GI50 [49] of 11.4 µM, a TGI [49] of 37.5 µM and a GI50 [50] of 1.76 µM. The TGI [50] was 6.11 µM, the GI50 [51] was 2.58 µM and the TGI [51] was 16.3 µM. It also gave a GI50 [52] of 3.85 µM, a TGI [52] of 28.3 µM and a GI50 [53] of 3.68 µM. For the same compound, the TGI [53] was 14.9 µM, the GI50 [54] was 5.93 µM and the TGI [54] was 28.6 µM. The GI50 [55] was 10.9 µM, the TGI [55] was 29.5 µM and the GI50 [56] was 11.2 µM. For the same compound, the TGI [56] was 27.9 µM, the GI50 [57] was 2.7 µM and the TGI [57] was 8.54 µM. It also gave a GI50 [58] of 12.9 µM and a TGI [58] of 26.6 µM.
